From patent publication US10285982B2, “3-(1H-pyrrolo[2,3-B]pyridin-2-yl)-1H-pyrazolo[3,4-C]pyridines and therapeutic uses thereof” (Samumed, LLC, priority 2015, dated 2019)
pEC50: −log10 of the molar value.

How the values were obtained:
[1] = system: primary human mesenchymal stem cells (hMSCs); experiment: Chondrogenesis induction in hMSCs (nodule count); format: cell-based; settings: 144 h, hMSC chondrogenesis, 6 days; for EC50: concentration required to induce 50% of TGF-β3 level, read-out: Conc. (nM) of 50% TGF-β3 activity; for Emax: relative to TGF-β3 (10 ng/mL) positive control, read-out: Max. Activity as % TGF-β3 activity
Method: Representative compounds were screened using primary human mesenchymal stem cells (hMSCs) to determine their ability to induce chondrogenesis (process by which cartilage is developed).
Primary human mesenchymal stem cells (hMSCs) were purchased from Lonza (Walkersville, Md.) and expanded in Mesenchymal Stem Cell Growth Media (Lonza). Cells between passage 3 and 6 were used for the experiments.
Each compound was dissolved in DMSO as a 10 mM stock and used to prepare compound source plates. Serial dilution (1:3, 6-point dose-response curves from 2700 nM to 10 nM) and compound transfer was performed using the ECHO 550 (Labcyte, Sunnyvale, Calif.) into 96-well clear bottom assay plates (Greiner Bio-One) with appropriate DMSO backfill for a final DMSO concentration of 0.03%. hMSCs were plated at 20,000 cells/well in 250 μL/well Incomplete Chondrogenic Induction Medium (Lonza; DMEM, dexamethasone, ascorbate, insulin-transferrin-selenium [ITS supplement], gentamycin-amphotericin [GA-1000], sodium pyruvate, proline and L-glutamine). TGF-β3 (10 ng/mL) was used as a positive control for differentiation while negative control wells were treated with 75 nL DMSO for normalization and calculating EC50 values. Cells were incubated at 37° C. and 5% CO2 for 6 days. To image chondrogenic nodules, the cells were fixed using 4% formaldehyde (Electron Microscopy Sciences), and stained with 2 μg/mL Rhodamine B (Sigma-Aldrich) and 20 μM Nile Red (Sigma-Aldrich) [Johnson K., et. al, A Stem Cell-Based Approach to Cartilage Repair, Science, (2012), 336(6082), 717-721]. The nodules imaged (4 images per well at 4× magnification) by excitation at 531 nm and emission at 625 nm and quantified using the CellInsight CX5 (Thermo Scientific). Number of nodules in each well was normalized to the average of 3 DMSO treated wells on the same plate using Excel (Microsoft Inc.). The normalized averages (fold change over DMSO) of 3 replicate wells for each compound concentration were calculated. Due to solubility limitations of some of the compounds, curve fitting was incomplete leading to inaccurate EC50 determinations.
Using TGF-β3 as a positive control, the concentration of representative compounds required to induce 50% levels of chondrogenesis is reported. In addition, the maximum activity of each compound and the respective dose that each compound reached maximum chondrogenesis activity is reported.

IL-6 (THP-1 cells) = experiment: IL-6 inhibition in LPS-stimulated THP-1 cells (HTRF); format: cell-based; settings: Homo sapiens; for pEC50: IL-6 in THP-1 cells, LPS 500 ng/mL, 22 hours; for inhibition at 10 µM: given where EC50 >10 μM, IL-6, THP-1 cells, LPS, read-out: percent inhibition at 10 μM
Method in brief: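 Readout is the 665/620 nm HTRF ratio for secreted IL-6, normalized to DMSO wells, with EC50 from a variable-slope four-parameter fit, or % inhibition at 10 μM when above 10 μM. Cells (1% FBS, 24 h beforehand) got compound for 2 h, then LPS 500 ng/mL for 22 h at 37° C; top dose 10 μM, 0.1% DMSO.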

Compound	EC50 [1]	pEC50 (IL-6 (THP-1 cells))	Emax [1]	inhibition at 10 µM (IL-6 (THP-1 cells))
CC(C)(C)C(=O)Nc1cncc(-c2cc3c(-c4cc5c(-c6cccc(F)c6)ccnc5[nH]4)n[nH]c3cn2)c1 [Compound 8, N-(5-(3-(4-(3-Fluorophenyl)-1H-pyrrolo[2,3-b]pyridin-2-yl)-1H-pyrazolo [3,4-c]pyridin-5-yl)pyridin-3-yl)pivalamide]	10 nM	< 5.00	114%	45.4%
O=C(Nc1cncc(-c2cc3c(-c4cc5c(-c6cccc(F)c6)ccnc5[nH]4)n[nH]c3cn2)c1)C1CC1 [Compound 20, N-(5-(3-(4-(3-Fluorophenyl)-1H-pyrrolo[2,3-b]pyridin-2-yl)-1H-pyrazolo [3,4-c]pyridin-5-yl)pyridin-3-yl)cyclopropanecarboxamide]	–	< 5.00	22%	42.8%
Fc1cccc(-c2ccnc3[nH]c(-c4n[nH]c5cnc(-c6cncnc6)cc45)cc23)c1 [Compound 27, 3-(4-(3-Fluorophenyl)-1H-pyrrolo[2,3-b]pyridin-2-yl)-5-(pyrimidin-5-yl)-1H-pyrazolo[3,4-c]pyridine]	–	< 5.00	41%	43.9%
CCNCc1cncc(-c2cc3c(-c4cc5c(-c6cccnc6)ccnc5[nH]4)n[nH]c3cn2)c1 [Compound 90, N-((5-(3-(4-(Pyridin-3-yl)-1H-pyrrolo[2,3-b]pyridin-2-yl)-1H-pyrazolo[3,4-c]pyridin-5-yl)pyridin-3-yl)methyl)ethanamine]	–	< 5.00	49%	33.9%
O=C(Nc1cncc(-c2cc3c(-c4cc5c(-c6cccnc6)ccnc5[nH]4)n[nH]c3cn2)c1)c1ccccc1 [Compound 95, N-(5-(3-(4-(Pyridin-3-yl)-1H-pyrrolo[2,3-b]pyridin-2-yl)-1H-pyrazolo[3,4-c]pyridin-5-yl)pyridin-3-yl)benzamide]	10 nM	< 5.00	64%	31.8%
CCCCC(=O)Nc1cncc(-c2cc3c(-c4cc5c(-c6cccnc6)ccnc5[nH]4)n[nH]c3cn2)c1 [Compound 103, N-(5-(3-(4-(Pyridin-3-yl)-1H-pyrrolo[2,3-b]pyridin-2-yl)-1H-pyrazolo[3,4-c]pyridin-5-yl)pyridin-3-yl)pentanamide]	10 nM	< 5.00	53%	17.8%
CN1CCN(c2ccnc3[nH]c(-c4n[nH]c5cnc(-c6cncc(N(C)C)c6)cc45)cc23)CC1 [Compound 231, N,N-Dimethyl-5-(3-(4-(4-methylpiperazin-1-yl)-1H-pyrrolo[2,3-b]pyridin-2-yl)-1H-pyrazolo[3,4-c]pyridin-5-yl)pyridin-3-amine]	–	< 5.00	14%	3.7%
Fc1cccc(-c2ccnc3[nH]c(-c4n[nH]c5cnc(-c6cncc(OCc7ccccc7)c6)cc45)cc23)c1 [Compound 518, 5-(5-(Benzyloxy)pyridin-3-yl)-3-(4-(3-fluorophenyl)-1H-pyrrolo[2,3-b]pyridin-2-yl)-1H-pyrazolo[3,4-c]pyridine]	–	< 5.00	–	0%
Oc1cncc(-c2cc3c(-c4cc5c(-c6ccc(F)cc6)ccnc5[nH]4)n[nH]c3cn2)c1 [Compound 533, 5-(3-(4-(4-Fluorophenyl)-1H-pyrrolo[2,3-b]pyridin-2-yl)-1H-pyrazolo[3,4-c]pyridin-5-yl)pyridin-3-ol]	–	< 5.00	–	7.2%
c1cc(N2CCCCC2)c2cc(-c3n[nH]c4cnc(C5CCNCC5)cc34)[nH]c2n1 [Compound 601, 3-(4-(Piperidin-1-yl)-1H-pyrrolo[2,3-b]pyridin-2-yl)-5-(piperidin-4-yl)-1H-pyrazolo[3,4-c]pyridine]	–	< 5.00	–	3%
Cn1cc(-c2cc3c(-c4cc5cccnc5[nH]4)n[nH]c3cn2)cn1 [Compound 652, 5-(1-Methyl-1H-pyrazol-4-yl)-3-(1H-pyrrolo[2,3-b]pyridin-2-yl)-1H-pyrazolo[3,4-c]pyridine]	–	< 5.00	–	15.2%

Continued, in another order:

EC50 [1]	pEC50 (IL-6 (THP-1 cells))	Compound	Emax [1]	inhibition at 10 µM (IL-6 (THP-1 cells))
100 nM	< 5.00	Fc1cccc(-c2ccnc3[nH]c(-c4n[nH]c5cnc(-c6cncc(CN7CCCC7)c6)cc45)cc23)c1 [Compound 14, 3-(4-(3-Fluorophenyl)-1H-pyrrolo[2,3-b]pyridin-2-yl)-5-(5-(pyrrolidin-1-ylmethyl)pyridin-3-yl)-1H-pyrazolo[3,4-c]pyridine]	68%	21.6%
–	< 5.00	Nc1cncc(-c2cc3c(-c4cc5c(-c6ccccc6F)ccnc5[nH]4)n[nH]c3cn2)c1 [Compound 59, 5-(3-(4-(2-Fluorophenyl)-1H-pyrrolo[2,3-b]pyridin-2-yl)-1H-pyrazolo[3,4-c]pyridin-5-yl)pyridin-3-amine]	32%	37.3%
30 nM	< 5.00	CCNCc1cncc(-c2cc3c(-c4cc5c(-c6ccccc6F)ccnc5[nH]4)n[nH]c3cn2)c1 [Compound 62, N-((5-(3-(4-(2-Fluorophenyl)-1H-pyrrolo[2,3-b]pyridin-2-yl)-1H-pyrazolo [3,4-c]pyridin-5-yl)pyridin-3-yl)methyl)ethanamine]	270%	24.8%
10 nM	< 5.00	CC(C)Nc1cncc(-c2cc3c(-c4cc5c(-c6cccnc6)ccnc5[nH]4)n[nH]c3cn2)c1 [Compound 96, N-Isopropyl-5-(3-(4-(pyridin-3-yl)-1H-pyrrolo[2,3-b]pyridin-2-yl)-1H-pyrazolo[3,4-c]pyridin-5-yl)pyridin-3-amine]	77%	23.5%
–	< 5.00	c1cncc(-c2ccnc3[nH]c(-c4n[nH]c5cnc(-c6cncc(CN7CCCC7)c6)cc45)cc23)c1 [Compound 98, 3-(4-(Pyridin-3-yl)-1H-pyrrolo[2,3-b]pyridin-2-yl)-5-(5-(pyrrolidin-1-ylmethyl)pyridin-3-yl)-1H-pyrazolo[3,4-c]pyridine]	17%	27.7%
–	< 5.00	c1cncc(-c2ccnc3[nH]c(-c4n[nH]c5cnc(-c6cncnc6)cc45)cc23)c1 [Compound 111, 3-(4-(Pyridin-3-yl)-1H-pyrrolo[2,3-b]pyridin-2-yl)-5-(pyrimidin-5-yl)-1H-pyrazolo[3,4-c]pyridine]	50%	37.4%
–	< 5.00	CN(C)Cc1cncc(-c2cc3c(-c4cc5c(-c6ccncc6)ccnc5[nH]4)n[nH]c3cn2)c1 [Compound 125, N,N-Dimethyl-1-(5-(3-(4-(pyridin-4-yl)-1H-pyrrolo[2,3-b]pyridin-2-yl)-1H-pyrazolo[3,4-c]pyridin-5-yl)pyridin-3-yl)methanamine]	33%	34.4%
–	< 5.00	CN(C)CCOc1cncc(-c2cc3c(-c4cc5c(-c6cccnc6)ccnc5[nH]4)n[nH]c3cn2)c1 [Compound 563, N,N-Dimethyl-2-((5-(3-(4-(pyridin-3-yl)-1H-pyrrolo[2,3-b]pyridin-2-yl)-1H-pyrazolo[3,4-c]pyridin-5-yl)pyridin-3-yl)oxy)ethan-1-amine]	–	15%
–	< 5.00	c1csc(-c2ccnc3[nH]c(-c4n[nH]c5cnc(-c6cncc(OC7CCCCC7)c6)cc45)cc23)c1 [Compound 703, 5-(5-(Cyclohexyloxy)pyridin-3-yl)-3-(4-(thiophen-2-yl)-1H-pyrrolo[2,3-b]pyridin-2-yl)-1H-pyrazolo[3,4-c]pyridine]	–	43.3%
